Results taken from US7316928B2, “Plant fatty acid amide hydrolases” (The University of North Texas, priority 2003, dated 2008).
Several values for one entry are separate records, joined by “and”; a condition that tells them apart may be missing. Equal values may be shown once. Read-outs that look alike come from different tables or passages of the source.

Experiments:
[1] = tested on: Arabidopsis seedlings; experiment: Arabidopsis seedling growth / root elongation on MS medium with exogenous NAE 12:0; assay type: in vivo; details: for EC50: Arabidopsis thaliana
Method: FIG. 11A-11C. Lengths of Arabidopsis seedling radicles/roots were measured daily after planting on MS medium that contained increasing concentrations of NAE 12:0. Data points are averages and standard deviation of 20 or more seedlings germinated and grown under identical conditions. There was a pronounced dose-dependent reduction in radicle/root length and elongation rate, similar to that shown previously (Blancaflor et al., 2003) for wildtype seedlings (FIG. 11A), and this seedling growth inhibition was more pronounced at higher NAE concentrations for both knockout lines (FIG. 11B and FIG. 11C).
FIG. 12. The rate of root elongation was calculated by a linear regression of the data presented in FIG. 11, and plotted as a function of NAE concentration.
Composite images were taken from seedlings grown on different plates, and were representative of typical replicate experiments. […] The altered profiles of extractable FAAH enzyme activities in mutant and transgenic plants led to predictable differences in the sensitivity of seedlings to exogenous NAE 12:0 indicating a modified ability of these plants to metabolize NAEs. Seedling growth of Arabidopsis wildtype seedlings was inhibited by exogenous treatment of NAE12:0).

[2] = target: Arabidopsis NAE amidohydrolase (Arabidopsis thaliana, UniProt Q7XJJ7); experiment: NAE amidohydrolase activity survey in crude E. coli lysates expressing Arabidopsis cDNA; assay type: biochemical
[3] = target: Arabidopsis NAE amidohydrolase (FAAH) (Arabidopsis thaliana, UniProt Q7XJJ7); assay type: biochemical
[4] = tested on: rice (Os) FAAH; experiment: NAE amidohydrolase activity of E. coli lysates expressing rice (Os) FAAH cDNA; assay type: biochemical, Oryza sativa; details: E. coli lysate, compared with NAE 18:2
[5] = target: Medicago truncatula (Mt) FAAH (Medicago truncatula, UniProt G7ISB0, G303S); assay type: biochemical; details: E. coli lysate, compared with NAE 18:2
Medicago truncatula (Mt) FAAH, sequence (G7ISB0 whole entry G303S, looked up, the tested form may be a part): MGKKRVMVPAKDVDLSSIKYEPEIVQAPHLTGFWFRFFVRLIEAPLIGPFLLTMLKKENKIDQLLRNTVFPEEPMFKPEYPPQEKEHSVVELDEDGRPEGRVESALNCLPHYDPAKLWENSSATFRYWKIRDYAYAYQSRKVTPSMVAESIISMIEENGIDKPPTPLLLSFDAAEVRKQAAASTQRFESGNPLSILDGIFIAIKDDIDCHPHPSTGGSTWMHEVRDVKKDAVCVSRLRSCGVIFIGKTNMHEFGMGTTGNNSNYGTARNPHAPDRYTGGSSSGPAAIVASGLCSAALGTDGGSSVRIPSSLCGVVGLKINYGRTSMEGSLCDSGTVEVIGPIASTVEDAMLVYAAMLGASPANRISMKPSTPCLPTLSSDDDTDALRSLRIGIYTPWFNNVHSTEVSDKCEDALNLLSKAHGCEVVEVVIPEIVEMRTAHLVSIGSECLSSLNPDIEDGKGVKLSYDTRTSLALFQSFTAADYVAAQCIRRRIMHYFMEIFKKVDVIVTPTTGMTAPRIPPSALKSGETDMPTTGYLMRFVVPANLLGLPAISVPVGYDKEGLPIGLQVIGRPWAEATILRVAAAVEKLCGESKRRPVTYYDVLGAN

[6] = substrate: CCCCC/C=C\C/C=C\C/C=C\C/C=C\CCCC(=O)NCCO; experiment: purified protein, by the assay type; details: other: apparent, substrate, 1 μg protein, pH 9.0, 30 min, 30° C., Michaelis-Menten fit
[7] = substrate: CCCCC/C=C\C/C=C\CCCCCCCC(=O)NCCO; experiment: purified protein, by the assay type; details: other: apparent, substrate, 1 μg protein, pH 9.0, 30 min, 30° C., Michaelis-Menten fit
[8] = substrate: CCCCCCCCCCCC(=O)NCCO; experiment: purified protein, by the assay type; details: other: apparent, substrate, 1 μg protein, pH 9.0, 30 min, 30° C., Michaelis-Menten fit
[9] = substrate: CCCCCCCCCCCCCC(=O)NCCO; experiment: purified protein, by the assay type; details: other: apparent, substrate, 1 μg protein, pH 9.0, 30 min, 30° C., Michaelis-Menten fit
[10] = substrate: CCCCCCCCCCCCCCCC(=O)NCCO; experiment: purified protein, by the assay type; details: other: apparent, substrate, 1 μg protein, pH 9.0, 30 min, 30° C., Michaelis-Menten fit

Molecule `CCCCCCCCCCCC(=O)NCCO` [NAE 12:0, N-lauroylethanolamine] has an EC50 ([1]; FAAH knockout seedlings, first value of the two knockout lines, read-out: EC50, rate of root elongation) of 18 µM, an EC50 ([1]; FAAH knockout seedlings, second value of the two knockout lines, read-out: EC50, rate of root elongation) of 23 µM and an EC50 ([1]; read-out: concentration that reduced growth by 50% (EC50), rate of root elongation, wildtype seedlings) of roughly 29 µM. For the same molecule, the seedling growth inhibition ([1]; FAAH gene expression reduced, particularly knockouts, 14 d growth) was “greatly exacerbated”, the “seedling sensitivity to application” value ([1]; FAAH overexpressors, 14 d growth) was “essentially insensitive” and the seedling growth ([1]; wildtype seedlings, continuous exposure, 14 d growth) was “reduced”.

With `CCCCC/C=C\C/C=C\CCCCCCCC(=O)NCCO` [NAE 18:2, N-linoleoylethanolamine] the “hydrolysis as substrate by recombinant Arabidopsis NAE amidohydrolase” value [2] was “effectively hydrolyzed”.

With `O=S(=O)(F)Cc1ccccc1` [PMSF, Phenylmethylsulfonyl fluoride] the “Specific Activity” value [3] was 11.34 ± 0.55 μmol h^−1 mg^−1 Protein and 9.06 ± 1.86 μmol h^−1 mg^−1 Protein and 7.89 ± 0.37 μmol h^−1 mg^−1 Protein and 6.72 ± 0.70 μmol h^−1 mg^−1 Protein and 5.96 ± 0.43 μmol h^−1 mg^−1 Protein.

In the case of `CCCCCCCCCCCCCCCC(=O)NCCO` [NAE 16:0, N-palmitoylethanolamine], the suitability as substrate [4] is reported as “equally suitable substrates” and the suitability as substrate [5] is reported as “equally suitable substrates”.

In the case of ceramide, the “hydrolysis as substrate by recombinant Arabidopsis NAE amidohydrolase” value [2] is reported as “did not hydrolyze” and the “influence on NAE hydrolysis” value [2] is reported as “nor did ceramide influence NAE hydrolysis”.

B1: recombinant Arabidopsis thaliana NAE amidohydrolase (Arabidopsis thaliana) (protein)
chain: MGKYQVMKRASEVDLSTVKYKAETMKAPHLTGLSFKLFVNLLEAPLIGSLIVDYLKKDNGMTKIFRNTVIPEEPMFRPEFPSQEPEHDVVIVGEDESPIDRLETALKCLPQYDPSRSLHADPVSSFRYWKIRDYAYAYRSKLTTPLQVAKRIISIIEEFGYDKPPTPFLIRFDANEVIKQAEASTRRFEQGNPISVLDGIFVTIKDDIDCLPHPTNGGTTWLHEDRSVEKDSAVVSKLRSCGAILLGKANMHELGMGTTGNNSNYGTTRNPHDPKRYTGGSSSGSAAIVAAGLCSAALGTDGGGSVRIPSALCGITGLKTTYGRTDMTGSLCEGGTVEIIGPLASSLEDAFLVYAAILGSSSADRYNLKPSPPCFPKLLSHNGSNAIGSLRLGKYTKWFNDVSSSDISDKCEDILKLLSNNHGCKVVEIVVPELEEMRAAHVISIGSPTLSSLTPYCEAGKNSKLSYDTRTSFAIFRSFSASDYIAAQCLRRRLMEYHLNIFKDVDVIVTPTTGMTAPVIPPDALKNGETNIQVTTDLMRFVLAANLLGFPAISVPVGYDKEGLPIGLQIMGRPWAEATVLGLAAAVEELAPVTKKPAIFYDILNTN
In the case of B1, the Km [6] is reported as 13.6 ± 2.1 µM, the Vmax [6] is reported as 0.298 µmol/min/mg and the Km [7] is reported as 26.2 ± 5.3 µM. It also gave a Vmax [7] of 0.235 µmol/min/mg, a Km [8] of 17.6 ± 2.8 µM and a Vmax [8] of 0.232 µmol/min/mg. It also gave a Km [9] of 37.0 ± 5.6 µM, a Vmax [9] of 0.152 µmol/min/mg and a Km [10] of 50.8 ± 14.1 µM. It also gave a Vmax [10] of 0.202 µmol/min/mg.
